Measurements published in US11117874B2, “Certain (2S)-N-[(1S)-1-cyano-2-phenylethyl]-1,4-oxazepane-2-carboxamides as dipeptidyl peptidase 1 inhibitors” (AstraZeneca AB, priority 2014, dated 2021).

Assay: Test B: In-Vitro Competitive Aortic Tissue Binding Assay
Settings: 100 μM compound pre-incubated overnight at 37° C. with rat aortic homogenate, competition with 100 μM [14C]4-amino-N-[(1S)-1-cyano-2-(4′-cyanobiphenyl-4-yl)ethyl]tetrahydro-2H-pyran-4-carboxamide; four categories
Procedure: To assist the design of DPP1 inhibitors with a decreased risk of binding to elastin rich tissues, such as the aorta, the in-vitro competitive aortic binding assay disclosed below (Test B) was developed to facilitate the selection process.
Test B: In-Vitro Competitive Aortic Tissue Binding Assay
Aortic homogenate was prepared from the thoracic aortae of Han Wistar rats. Freshly isolated to thoracic aortae were frozen, and later thawed and stripped of non-elastic material.
Homogenate concentration was adjusted to 30 mg/mL in Puck's saline, and aliquots were stored at −80° C. until use. Positive and negative control compounds and test compounds were made up to 100 mM in DMSO, and added to 1 mL aliquots of aortic homogenate in Puck's saline for a final concentration of 100 μM. Homogenate samples were pre-incubated with test compounds at 37° C., rotating, overnight. [^14C]4-Amino-N-[(1S)-1-cyano-2-(4′-cyanobiphenyl-4-yl)ethyl]tetrahydro-2H-pyran-4-carboxamide was then added to all samples to a final concentration of 100 μM, and samples were incubated at 37° C., rotating, for a further 2 h. Protein was precipitated from each sample by the addition of 10 mL acetone, pre-chilled to −20° C. Samples were left overnight at −20° C. to allow complete precipitation. Precipitate was pelleted by centrifugation at 4,500×g at 4° C. for 20 min, an aliquot of supernatant was removed for analysis, and the remainder of the supernatant discarded. Precipitate was washed by resuspension in 10 mL 80% methanol in distilled water, and re-pelleted by centrifugation at 4,500×g at 4° C. for 20 min. […] After final wash, precipitate was air-dried, and dissolved overnight in 1 mL NCSII Tissue Solubiliser. 1 mL aliquots of supernatants were added to 5 mL Ultima Gold scintillation fluid (Perkin Elmer, Mass., U.S.A.), and 1 mL solubilised pellets were added to 5 mL Hionic-Fluor scintillation fluid (Perkin Elmer, Mass., U.S.A.). Radioactivity of samples was determined on a Beckman LS6500 multipurpose scintillation counter (Beckman Coulter, Ind., U.S.A.). […] Duplicate samples were tested for each compound on each experimental occasion, and at least two experiments were run for each test compound. […] 1-way ANOVA and to Bonferroni's multiple comparison tests were performed to calculate significance of differences from vehicle control.
With `Cn1c(=O)oc2ccc(-c3ccc(C[C@@H](C#N)NC(=O)[C@@H]4CNCCCO4)cc3)cc21` [Example 2, (2S)—N-{(1S)-1-Cyano-2-[4-(3-methyl-2-oxo-2,3-dihydro-1,3-benzoxazol-5-yl)phenyl]ethyl}-1,4-oxazepane-2-carboxamide] the “Aortic Tissue Binding” value was “No binder”.
With `N#Cc1ccc(-c2ccc(C[C@@H](C#N)NC(=O)[C@@H]3CCCCN3)cc2)cc1` [WO2009/074829 (Example 24)] the “Aortic Tissue Binding” value was “Binder”.
For `Cn1c(=O)oc2ccc(-c3ccc(C[C@@H](C#N)NC(=O)C4(N)CCOCC4)cc3)cc21` [WO2010/128324 (Example 17)], the “Aortic Tissue Binding” value was “Strong binder”.
For `Cn1c(=O)oc2ccc(-c3ccc(C[C@@H](C#N)NC(=O)[C@@H]4CCCCN4)cc3)cc21` [WO2009/074829 (Example 96)], the “Aortic Tissue Binding” value was “Medium binder”.
With `N#Cc1ccc(-c2ccc(C[C@@H](C#N)NC(=O)C3(N)CCOCC3)cc2)cc1` [WO2010/128324 (Ex. 3), 4-amino-N-[(1S)-1-cyano-2-(4′-cyanobiphenyl-4-yl)ethyl]tetrahydro-2H-pyran-4-carboxamide] the “Aortic Tissue Binding” value was “Strong binder (reference)”.

Assay: not given
Settings: described in literature (Schmidt et al. 1984); cited from earlier work
In the case of `CC(c1ccc(Cl)c(Cl)c1)N1N=C(N)CC1=O` (stereo not drawn) [muzolimine], the “retention in the aorta in QWBA studies” value is given as “retained selectively in the aorta”.
